Assay results: ChEMBL document CHEMBL3045297, “Synthesis and antifungal activity of 2-azetidinonyl-5-(2-benzoylphenoxy)methyl-1,3,4-oxadiazoles against seed-borne pathogens of Eleusine coracana (L.) Gaertn” (2009)

Key:
Type in all cases: functional
Eleusine coracana [1] = assay: Phytostimulatory activity in Eleusine coracana (finger mellet) seedlings assessed as vigour index at 10 g/L (reference value: 567 +/- 0.5 no unit)
Bipolaris setariae [2] = assay: Antifungal activity against Bipolaris setariae infected finger millet seed assessed as fungal occurrence at 20 g/L after 1 week by stereoscopic analysis (reference value: 18 +/- 0.40%)
Bipolaris setariae [3] = assay: Antifungal activity against Bipolaris setariae infected finger millet seed assessed as fungal occurrence at 10 g/L after 1 week by stereoscopic analysis (reference value: 18 +/- 0.40%)
Eleusine coracana [4] = assay: Induction of seed germination in Eleusine coracana (finger mellet) at 10 g/L (reference value: 81 +/- 0.40%)
Pyricularia grisea [5] = assay: Antifungal activity against Magnaporthe grisea infected finger millet seed assessed as fungal occurrence at 20 g/L after 1 week by stereoscopic analysis (reference value: 12.5 +/- 0.35%)
Bipolaris setariae [6] = assay: Antifungal activity against Bipolaris setariae infected finger millet seed assessed as fungal occurrence at 1 g/L after 1 week by stereoscopic analysis (reference value: 18 +/- 0.40%)
Eleusine coracana [7] = assay: Phytostimulatory activity in Eleusine coracana (finger mellet) seedlings assessed as vigour index at 1 g/L (reference value: 567 +/- 0.5 no unit)
Bipolaris setariae [8] = assay: Antifungal activity against Bipolaris setariae infected finger millet seed assessed as fungal occurrence at 40 g/L after 1 week by stereoscopic analysis (reference value: 18 +/- 0.40%)
Pyricularia grisea [9] = assay: Antifungal activity against Magnaporthe grisea infected finger millet seed assessed as fungal occurrence at 40 g/L after 1 week by stereoscopic analysis (reference value: 12.5 +/- 0.35%)
Pyricularia grisea [10] = assay: Antifungal activity against Magnaporthe grisea infected finger millet seed assessed as fungal occurrence at 1 g/L after 1 week by stereoscopic analysis (reference value: 12.5 +/- 0.35%)
Eleusine coracana [11] = assay: Induction of seed germination in Eleusine coracana (finger mellet) at 1 g/L (reference value: 81 +/- 0.40%)
Eleusine coracana [12] = assay: Induction of seed germination in Eleusine coracana (finger mellet) at 20 g/L (reference value: 81 +/- 0.40%)
Eleusine coracana [13] = assay: Phytostimulatory activity in Eleusine coracana (finger mellet) seedlings assessed as vigour index at 40 g/L (reference value: 567 +/- 0.5 no unit)
Pyricularia grisea [14] = assay: Antifungal activity against Magnaporthe grisea infected finger millet seed assessed as fungal occurrence at 10 g/L after 1 week by stereoscopic analysis (reference value: 12.5 +/- 0.35%)
Eleusine coracana [15] = assay: Induction of seed germination in Eleusine coracana (finger mellet) at 40 g/L (reference value: 81 +/- 0.40%)
Eleusine coracana [16] = assay: Phytostimulatory activity in Eleusine coracana (finger mellet) seedlings assessed as vigour index at 20 g/L (reference value: 567 +/- 0.5 no unit)

Compound: Cc1ccc(OCc2nnc(N3C(=O)C(Cl)C3c3cccc(Br)c3)o2)c(C(=O)c2ccccc2Cl)c1 (stereo unspecified)
- Vigour_index (Eleusine coracana [1]): 674
- Activity (Bipolaris setariae [2]): 2%
- Activity (Bipolaris setariae [3]): 3.5%
- Activity (Eleusine coracana [4]): 84%
- Activity (Pyricularia grisea [5]): 2%
- Activity (Bipolaris setariae [6]): 4%
- Vigour_index (Eleusine coracana [7]): 645
- Activity (Bipolaris setariae [8]): 2%
- Activity (Pyricularia grisea [9]): 1%
- Activity (Pyricularia grisea [10]): 3.5%
- Activity (Eleusine coracana [11]): 82%
- Activity (Eleusine coracana [12]): 86%
- Vigour_index (Eleusine coracana [13]): 692
- Activity (Pyricularia grisea [14]): 3%
- Activity (Eleusine coracana [15]): 89%
- Vigour_index (Eleusine coracana [16]): 754

Compound: Cc1ccc(OCc2nnc(N3C(=O)C(Cl)C3c3cccc(Br)c3)o2)c(C(=O)c2ccc(Cl)cc2)c1 (stereo unspecified)
- Vigour_index (Eleusine coracana [1]): 611
- Activity (Bipolaris setariae [2]): 5%
- Activity (Bipolaris setariae [3]): 9%
- Activity (Eleusine coracana [4]): 85%
- Activity (Pyricularia grisea [5]): 3%
- Activity (Bipolaris setariae [6]): 11%
- Vigour_index (Eleusine coracana [7]): 588
- Activity (Bipolaris setariae [8]): 4.5%
- Activity (Pyricularia grisea [9]): 2%
- Activity (Pyricularia grisea [10]): 4%
- Activity (Eleusine coracana [11]): 81%
- Activity (Eleusine coracana [12]): 85%
- Vigour_index (Eleusine coracana [13]): 693
- Activity (Pyricularia grisea [14]): 3%
- Activity (Eleusine coracana [15]): 87%
- Vigour_index (Eleusine coracana [16]): 645

Compound: COc1ccc(C(=O)c2cc(C)ccc2OCc2nnc(N3C(=O)C(Cl)C3c3cccc(Br)c3)o2)cc1 (stereo unspecified)
- Vigour_index (Eleusine coracana [1]): 658
- Activity (Bipolaris setariae [2]): 2%
- Activity (Bipolaris setariae [3]): 2.5%
- Activity (Eleusine coracana [4]): 88%
- Activity (Pyricularia grisea [5]): 1%
- Activity (Bipolaris setariae [6]): 3.5%
- Vigour_index (Eleusine coracana [7]): 626
- Activity (Bipolaris setariae [8]): 2%
- Activity (Pyricularia grisea [9]): 1%
- Activity (Pyricularia grisea [10]): 3.5%
- Activity (Eleusine coracana [11]): 85%
- Activity (Eleusine coracana [12]): 90%
- Vigour_index (Eleusine coracana [13]): 688
- Activity (Pyricularia grisea [14]): 2.5%
- Activity (Eleusine coracana [15]): 84%
- Vigour_index (Eleusine coracana [16]): 706

Compound: O=C(c1cccc(Cl)c1)c1cc(Cl)ccc1OCc1nnc(N2C(=O)C(Cl)C2c2cccc(Br)c2)o1 (stereo unspecified)
- Vigour_index (Eleusine coracana [1]): 668
- Activity (Bipolaris setariae [2]): 0.5%
- Activity (Bipolaris setariae [3]): 2%
- Activity (Eleusine coracana [4]): 86%
- Activity (Pyricularia grisea [5]): 0.5%
- Activity (Bipolaris setariae [6]): 2.5%
- Vigour_index (Eleusine coracana [7]): 622
- Activity (Bipolaris setariae [8]): 0.5%
- Activity (Pyricularia grisea [9]): 0.5%
- Activity (Pyricularia grisea [10]): 2%
- Activity (Eleusine coracana [11]): 85%
- Activity (Eleusine coracana [12]): 89%
- Vigour_index (Eleusine coracana [13]): 700
- Activity (Pyricularia grisea [14]): 1%
- Activity (Eleusine coracana [15]): 90%
- Vigour_index (Eleusine coracana [16]): 711

Compound: Cc1ccc(OCc2nnc(N3C(=O)C(Cl)C3c3cccc(Br)c3)o2)c(C(=O)c2cccc(Cl)c2)c1 (stereo unspecified)
- Vigour_index (Eleusine coracana [1]): 590
- Activity (Bipolaris setariae [2]): 2.5%
- Activity (Bipolaris setariae [3]): 4.5%
- Activity (Eleusine coracana [4]): 80%
- Activity (Pyricularia grisea [5]): 4.5%
- Activity (Bipolaris setariae [6]): 3.5%
- Vigour_index (Eleusine coracana [7]): 581
- Activity (Bipolaris setariae [8]): 6%
- Activity (Pyricularia grisea [9]): 4.5%
- Activity (Pyricularia grisea [10]): 5%
- Activity (Eleusine coracana [11]): 80%
- Activity (Eleusine coracana [12]): 82%
- Vigour_index (Eleusine coracana [13]): 630
- Activity (Pyricularia grisea [14]): 3.5%
- Activity (Eleusine coracana [15]): 80%
- Vigour_index (Eleusine coracana [16]): 639

Compound: Cc1cc(OCc2nnc(N3C(=O)C(Cl)C3c3cccc(Br)c3)o2)c(C(=O)c2ccccc2)cc1Cl (stereo unspecified)
- Vigour_index (Eleusine coracana [1]): 677
- Activity (Bipolaris setariae [2]): 2%
- Activity (Bipolaris setariae [3]): 1%
- Activity (Eleusine coracana [4]): 86%
- Activity (Pyricularia grisea [5]): 1%
- Activity (Bipolaris setariae [6]): 2%
- Vigour_index (Eleusine coracana [7]): 661
- Activity (Bipolaris setariae [8]): 2%
- Activity (Pyricularia grisea [9]): 0%
- Activity (Pyricularia grisea [10]): 3%
- Activity (Eleusine coracana [11]): 86%
- Activity (Eleusine coracana [12]): 89%
- Vigour_index (Eleusine coracana [13]): 656
- Activity (Pyricularia grisea [14]): 2%
- Activity (Eleusine coracana [15]): 82%
- Vigour_index (Eleusine coracana [16]): 715

Compound: O=C(c1ccccc1)c1ccc(Br)cc1OCc1nnc(N2C(=O)C(Cl)C2c2cccc(Br)c2)o1 (stereo unspecified)
- Vigour_index (Eleusine coracana [1]): 615
- Activity (Bipolaris setariae [2]): 3.5%
- Activity (Bipolaris setariae [3]): 4.5%
- Activity (Eleusine coracana [4]): 86%
- Activity (Pyricularia grisea [5]): 3.5%
- Activity (Bipolaris setariae [6]): 13.5%
- Vigour_index (Eleusine coracana [7]): 572
- Activity (Bipolaris setariae [8]): 2.5%
- Activity (Pyricularia grisea [9]): 2.5%
- Activity (Pyricularia grisea [10]): 4%
- Activity (Eleusine coracana [11]): 81%
- Activity (Eleusine coracana [12]): 86%
- Vigour_index (Eleusine coracana [13]): 663
- Activity (Pyricularia grisea [14]): 3.5%
- Activity (Eleusine coracana [15]): 83%
- Vigour_index (Eleusine coracana [16]): 655

Compound: COC(=O)Nc1nc2ccccc2[nH]1 [CARBENDAZIM]
- Vigour_index (Eleusine coracana [1]): 579
- Activity (Bipolaris setariae [2]): 2%
- Activity (Bipolaris setariae [3]): 3%
- Activity (Eleusine coracana [4]): 84%
- Activity (Pyricularia grisea [5]): 1%
- Activity (Bipolaris setariae [6]): 3%
- Vigour_index (Eleusine coracana [7]): 567
- Activity (Bipolaris setariae [8]): 2%
- Activity (Pyricularia grisea [9]): 1%
- Activity (Pyricularia grisea [10]): 1.5%
- Activity (Eleusine coracana [11]): 82%
- Activity (Eleusine coracana [12]): 85%
- Vigour_index (Eleusine coracana [13]): 621
- Activity (Pyricularia grisea [14]): 1.5%
- Activity (Eleusine coracana [15]): 87%
- Vigour_index (Eleusine coracana [16]): 612

Compound: O=C(c1ccccc1)c1cc(Cl)ccc1OCc1nnc(N2C(=O)C(Cl)C2c2cccc(Br)c2)o1 (stereo unspecified)
- Vigour_index (Eleusine coracana [1]): 585
- Activity (Bipolaris setariae [2]): 7%
- Activity (Bipolaris setariae [3]): 10%
- Activity (Eleusine coracana [4]): 83%
- Activity (Pyricularia grisea [5]): 4%
- Activity (Bipolaris setariae [6]): 11%
- Vigour_index (Eleusine coracana [7]): 544
- Activity (Bipolaris setariae [8]): 6%
- Activity (Pyricularia grisea [9]): 3%
- Activity (Pyricularia grisea [10]): 6%
- Activity (Eleusine coracana [11]): 81%
- Activity (Eleusine coracana [12]): 83%
- Vigour_index (Eleusine coracana [13]): 641
- Activity (Pyricularia grisea [14]): 5%
- Activity (Eleusine coracana [15]): 86%
- Vigour_index (Eleusine coracana [16]): 620

Compound: Cc1ccc(C(=O)c2cc(C)ccc2OCc2nnc(N3C(=O)C(Cl)C3c3cccc(Br)c3)o2)cc1 (stereo unspecified)
- Vigour_index (Eleusine coracana [1]): 633
- Activity (Bipolaris setariae [2]): 2.5%
- Activity (Bipolaris setariae [3]): 6%
- Activity (Eleusine coracana [4]): 82%
- Activity (Pyricularia grisea [5]): 1.5%
- Activity (Bipolaris setariae [6]): 14%
- Vigour_index (Eleusine coracana [7]): 594
- Activity (Bipolaris setariae [8]): 1.5%
- Activity (Pyricularia grisea [9]): 1%
- Activity (Pyricularia grisea [10]): 4%
- Activity (Eleusine coracana [11]): 80%
- Activity (Eleusine coracana [12]): 86%
- Vigour_index (Eleusine coracana [13]): 659
- Activity (Pyricularia grisea [14]): 4%
- Activity (Eleusine coracana [15]): 83%
- Vigour_index (Eleusine coracana [16]): 680

Compound: Cc1ccc(OCc2nnc(N3C(=O)C(Cl)C3c3cccc(Br)c3)o2)c(C(=O)c2ccccc2)c1 (stereo unspecified)
- Vigour_index (Eleusine coracana [1]): 569
- Activity (Bipolaris setariae [2]): 4.5%
- Activity (Bipolaris setariae [3]): 6%
- Activity (Eleusine coracana [4]): 81%
- Activity (Pyricularia grisea [5]): 2.5%
- Activity (Bipolaris setariae [6]): 15%
- Vigour_index (Eleusine coracana [7]): 565
- Activity (Bipolaris setariae [8]): 1%
- Activity (Pyricularia grisea [9]): 2%
- Activity (Pyricularia grisea [10]): 12%
- Activity (Eleusine coracana [11]): 80%
- Activity (Eleusine coracana [12]): 84%
- Vigour_index (Eleusine coracana [13]): 620
- Activity (Pyricularia grisea [14]): 3.5%
- Activity (Eleusine coracana [15]): 86%
- Vigour_index (Eleusine coracana [16]): 589
